Measurements reported in PMC12090182, “Repurposing of the RIPK1-Selective Benzo[1,4]oxazepin-4-one Scaffold for the Development of a Type III LIMK1/2 Inhibitor” (ACS Chemical Biology, 2025).
Where two headings read alike, the source gives them in different places.

Assays:
Format in all cases: cell-based
[1] = test system: HEK293T cells; details: human
Protocol: (§1) To assess the influence on cell health, a high-content screening in living cells called the multiplex high-content assay, as described previously by Tjaden et al., was performed.[38] In brief, HEK293T (ATCC CRL-1573) and U2OS (ATCCHTB-96) were cultured in DMEM plus L-glutamine (high glucose) supplemented by 10% FBS (Gibco) and penicillin/streptomycin (Gibco). MRC-9 fibroblasts ([…]) were cultured in EMEM plus L-glutamine supplemented by 10% FBS (Gibco) and penicillin/streptomycin (Gibco). Cells were seeded at a density of 1250 cells per well in a 384-well plate in a culture medium (cell culture microplate, PS, f-bottom, μClear, 781091, Greiner), with a volume of 50 μL per well. All outer wells were filled with 100 μL of PBS buffer (Gibco). […] The cell shape and fluorescence were measured before treatment and 12, 24, and 48 h after compound treatment using the CQ1 high-content confocal microscope (Yokogawa, Musashino, Japan). […] The compounds were tested at 1 and 10 μM, respectively. Acquired images of the cells were processed using Yokogawa CellPathfinder software (v3.04.02.02). […] Results were normalized to cells exposed to 0.1% DMSO. All compounds were tested in biological duplicates, and SEM (standard error of mean) was calculated of biological duplicates.

[2] = test system: U2OS cells; details: human, 24 h, 1 µM
Protocol: as §1

[3] = test system: MRC-9 cells; test: Multiplex high-content viability assessment; details: human fibroblast
Protocol: as §1

[4] = 1 µM, 0 h, biological replicate 1
[5] = 1 µM, 12 h, biological replicate 1
[6] = 1 µM, 24 h, biological replicate 1
[7] = 1 µM, 48 h, biological replicate 1
[8] = 1 µM, 0 h after treatment, biological replicate 2
[9] = 1 µM, 12 h after treatment, biological replicate 2
[10] = 1 µM, 24 h after treatment, biological replicate 2
[11] = 1 µM, 48 h after treatment, biological replicate 2
[12] = 10 µM, 0 h, biological replicate 1
[13] = 10 µM, 12 h, biological replicate 1
[14] = 10 µM, 24 h, biological replicate 1
[15] = 10 µM, 48 h, biological replicate 1
[16] = 10 µM, 0 h after treatment, biological replicate 2
[17] = 10 µM, 12 h after treatment, biological replicate 2
[18] = 10 µM, 24 h after treatment, biological replicate 2
[19] = 10 µM, 48 h after treatment, biological replicate 2

SMILES: CCCCN(Cc1ccccc1)C(=O)c1ccc(S(=O)(=O)Nc2ccccc2)cc1 [TH257]
- Population with membrane disruption (%) ([1]; 0 h, 1 µM): 0.00%
- Population with membrane disruption (%) ([1]; 0 h, 10 µM): 0.00%
- Population with membrane disruption (%) ([1]; 24 h, 10 µM): 0.00%
- Cell count per well [2]: 316
- Cell count normalized to cells treated with DMSO control [3, 4]: 1.114
- Cell count per well [3, 4]: 167
- Population Fragmented Nuclei (%) [3, 4]: 8.59%
- Population Healthy Nuclei (%) [3, 4]: 70.55%
- Population Pyknosed Nuclei (%) [3, 4]: 20.86%
- Population apoptotic cell (%) [3, 4]: 41.18%
- Population cell that influence microtubule strucutre (%) [3, 4]: 18.26%
- Population with increased mitochondrial mass (%) [3, 4]: 10.43%
- Population with membrane disruption (%) [3, 4]: 0.87%
- Cell count normalized to cells treated with DMSO control [3, 5]: 1.0759
- Cell count per well [3, 5]: 162
- Population Fragmented Nuclei (%) [3, 5]: 8.18%
- Population Healthy Nuclei (%) [3, 5]: 74.84%
- Population Pyknosed Nuclei (%) [3, 5]: 16.98%
- Population apoptotic cell (%) [3, 5]: 37.04%
- Population cell that influence microtubule strucutre (%) [3, 5]: 23.53%
- Population with increased mitochondrial mass (%) [3, 5]: 5.88%
- Population with membrane disruption (%) [3, 5]: 1.68%
- Cell count normalized to cells treated with DMSO control [3, 6]: 1.074
- Cell count per well [3, 6]: 162
- Population Fragmented Nuclei (%) [3, 6]: 8.86%
- Population Healthy Nuclei (%) [3, 6]: 76.58%
- Population Pyknosed Nuclei (%) [3, 6]: 14.56%
- Population apoptotic cell (%) [3, 6]: 43.48%
- Population cell that influence microtubule strucutre (%) [3, 6]: 23.97%
- Population with increased mitochondrial mass (%) [3, 6]: 5.79%
- Population with membrane disruption (%) [3, 6]: 0.00%
- Cell count normalized to cells treated with DMSO control [3, 7]: 1.094
- Cell count per well [3, 7]: 166
- Population Fragmented Nuclei (%) [3, 7]: 14.56%
- Population Healthy Nuclei (%) [3, 7]: 76.58%
- Population Pyknosed Nuclei (%) [3, 7]: 8.86%
- Population apoptotic cell (%) [3, 7]: 64.29%
- Population cell that influence microtubule strucutre (%) [3, 7]: 20.66%
- Population with increased mitochondrial mass (%) [3, 7]: 0.83%
- Population with membrane disruption (%) [3, 7]: 0.83%
- Cell count normalized to cells treated with DMSO control [3, 8]: 1.076
- Cell count per well [3, 8]: 192
- Population Fragmented Nuclei (%) [3, 8]: 13.26%
- Population Healthy Nuclei (%) [3, 8]: 56.35%
- Population Pyknosed Nuclei (%) [3, 8]: 30.39%
- Population apoptotic cell (%) [3, 8]: 34.55%
- Population cell that influence microtubule strucutre (%) [3, 8]: 45.10%
- Population with increased mitochondrial mass (%) [3, 8]: 3.92%
- Population with membrane disruption (%) [3, 8]: 7.84%
- Cell count normalized to cells treated with DMSO control [3, 9]: 1.0446
- Cell count per well [3, 9]: 174
- Population Fragmented Nuclei (%) [3, 9]: 19.08%
- Population Healthy Nuclei (%) [3, 9]: 51.97%
- Population Pyknosed Nuclei (%) [3, 9]: 28.95%
- Population apoptotic cell (%) [3, 9]: 25.00%
- Population cell that influence microtubule strucutre (%) [3, 9]: 64.56%
- Population with increased mitochondrial mass (%) [3, 9]: 13.92%
- Population with membrane disruption (%) [3, 9]: 7.59%
- Cell count normalized to cells treated with DMSO control [3, 10]: 0.9402
- Cell count per well [3, 10]: 155
- Population Fragmented Nuclei (%) [3, 10]: 16.78%
- Population Healthy Nuclei (%) [3, 10]: 57.34%
- Population Pyknosed Nuclei (%) [3, 10]: 25.87%
- Population apoptotic cell (%) [3, 10]: 35.14%
- Population cell that influence microtubule strucutre (%) [3, 10]: 70.73%
- Population with increased mitochondrial mass (%) [3, 10]: 4.88%
- Population with membrane disruption (%) [3, 10]: 13.41%
- Cell count per well [3, 11]: 166
- Population Fragmented Nuclei (%) [3, 11]: 32.10%
- Population Healthy Nuclei (%) [3, 11]: 49.38%
- Population Pyknosed Nuclei (%) [3, 11]: 18.52%
- Population apoptotic cell (%) [3, 11]: 50.00%
- Population cell that influence microtubule strucutre (%) [3, 11]: 76.25%
- Population with increased mitochondrial mass (%) [3, 11]: 3.75%
- Population with membrane disruption (%) [3, 11]: 8.75%
- Cell count normalized to cells treated with DMSO control [3, 12]: 1.048
- Cell count per well [3, 12]: 157
- Population Fragmented Nuclei (%) [3, 12]: 18.47%
- Population Healthy Nuclei (%) [3, 12]: 59.24%
- Population Pyknosed Nuclei (%) [3, 12]: 22.29%
- Population apoptotic cell (%) [3, 12]: 34.29%
- Population cell that influence microtubule strucutre (%) [3, 12]: 23.66%
- Population with increased mitochondrial mass (%) [3, 12]: 3.23%
- Population with membrane disruption (%) [3, 12]: 0.00%
- Cell count normalized to cells treated with DMSO control [3, 13]: 1.149
- Cell count per well [3, 13]: 173
- Population Fragmented Nuclei (%) [3, 13]: 12.35%
- Population Healthy Nuclei (%) [3, 13]: 58.02%
- Population Pyknosed Nuclei (%) [3, 13]: 29.63%
- Population apoptotic cell (%) [3, 13]: 35.42%
- Population cell that influence microtubule strucutre (%) [3, 13]: 80.85%
- Population with increased mitochondrial mass (%) [3, 13]: 13.83%
- Population with membrane disruption (%) [3, 13]: 4.26%
- Cell count normalized to cells treated with DMSO control [3, 14]: 1.094
- Cell count per well [3, 14]: 165
- Population Fragmented Nuclei (%) [3, 14]: 16.25%
- Population Healthy Nuclei (%) [3, 14]: 66.25%
- Population Pyknosed Nuclei (%) [3, 14]: 17.50%
- Population apoptotic cell (%) [3, 14]: 57.14%
- Population cell that influence microtubule strucutre (%) [3, 14]: 88.68%
- Population with increased mitochondrial mass (%) [3, 14]: 11.32%
- Population with membrane disruption (%) [3, 14]: 1.89%
- Cell count normalized to cells treated with DMSO control [3, 15]: 1.18
- Cell count per well [3, 15]: 179
- Population Fragmented Nuclei (%) [3, 15]: 23.84%
- Population Healthy Nuclei (%) [3, 15]: 63.37%
- Population Pyknosed Nuclei (%) [3, 15]: 12.79%
- Population apoptotic cell (%) [3, 15]: 72.73%
- Population cell that influence microtubule strucutre (%) [3, 15]: 85.32%
- Population with increased mitochondrial mass (%) [3, 15]: 20.18%
- Population with membrane disruption (%) [3, 15]: 0.92%
- Cell count normalized to cells treated with DMSO control [3, 16]: 0.8298
- Cell count per well [3, 16]: 148
- Population Fragmented Nuclei (%) [3, 16]: 24.82%
- Population Healthy Nuclei (%) [3, 16]: 45.39%
- Population Pyknosed Nuclei (%) [3, 16]: 29.79%
- Population apoptotic cell (%) [3, 16]: 47.62%
- Population cell that influence microtubule strucutre (%) [3, 16]: 40.63%
- Population with increased mitochondrial mass (%) [3, 16]: 9.38%
- Population with membrane disruption (%) [3, 16]: 3.13%
- Cell count normalized to cells treated with DMSO control [3, 17]: 0.8645
- Cell count per well [3, 17]: 144
- Population Fragmented Nuclei (%) [3, 17]: 24.46%
- Population Healthy Nuclei (%) [3, 17]: 56.83%
- Population Pyknosed Nuclei (%) [3, 17]: 18.71%
- Population apoptotic cell (%) [3, 17]: 50.00%
- Population cell that influence microtubule strucutre (%) [3, 17]: 86.08%
- Population with increased mitochondrial mass (%) [3, 17]: 13.92%
- Population with membrane disruption (%) [3, 17]: 12.66%
- Cell count normalized to cells treated with DMSO control [3, 18]: 0.8917
- Cell count per well [3, 18]: 147
- Population Fragmented Nuclei (%) [3, 18]: 25.18%
- Population Healthy Nuclei (%) [3, 18]: 59.71%
- Population Pyknosed Nuclei (%) [3, 18]: 15.11%
- Population apoptotic cell (%) [3, 18]: 57.14%
- Population cell that influence microtubule strucutre (%) [3, 18]: 91.57%
- Population with increased mitochondrial mass (%) [3, 18]: 19.28%
- Population with membrane disruption (%) [3, 18]: 4.82%
- Cell count normalized to cells treated with DMSO control [3, 19]: 0.964
- Cell count per well [3, 19]: 157
- Population Fragmented Nuclei (%) [3, 19]: 30.32%
- Population Healthy Nuclei (%) [3, 19]: 59.35%
- Population Pyknosed Nuclei (%) [3, 19]: 10.32%
- Population apoptotic cell (%) [3, 19]: 56.25%
- Population cell that influence microtubule strucutre (%) [3, 19]: 89.13%
- Population with increased mitochondrial mass (%) [3, 19]: 18.48%
- Population with membrane disruption (%) [3, 19]: 0.00%
